Results taken from publication PMC5570892, “Indole-based perenosins as highly potent HCl transporters and potential anti-cancer agents” (Scientific Reports, 2017).
Several values for one entry are separate records, joined by “and”; a condition that tells them apart may be missing. Identical values can stand only once. Entries after “also recorded” stand apart in the source; their conditions may differ. Like-named read-outs stand apart in the source and are kept apart here.

Assays:
MDA-MB-231 cells = assay: MTT cell viability assay; assay type: cell-based; conditions: Homo sapiens, error from three repeats in brackets
Protocol: Herein, we carried out further in vitro studies at the University of Barcelona for the full library of perenosins. Single dose screening for cell viability using the methylthiazoletetrazolium (MTT) colorimetric assay over five different cell lines (cancer cells MCF-7, MDA-MB-231, A549 and SW620, and non-cancerous human cells MCF-10A) was conducted.
While perenosin 5, with pentyl substituent at R3, has similar cell viability effects as 1d, bis-indole perenosin 7 with pentyl substituent at R1 has a moderate degree of late onset by a factor of 7.
S11.1 Cell Lines and Culture Conditions
The human cell lines were obtained from the American Type Culture Collection (ATCC, Manassas VA). Breast adenocarcinoma MDA-MB-231 and MCF-7 cells were maintained in DMEM:F12 media (1:1; Biological Industries, Beit Haemek, Israel), and 10 µg/ml insulin and 50 µM sodium pyruvate from Sigma-Aldrich Chemical Co. (St. Louis, MO) were added to MCF-7 cells. Lung adenocarcinoma A549 and colorectal adenocarcinoma SW620 cells were cultured in DMEM media. All were supplemented with 10% foetal bovine serum (FBS; Invitrogen-Life Technologies, Carlsbad, CA) and 100 U/mL penicillin, 100 µg/mL streptomycin and 2 mM L-glutamine, all from Biological Industries.
Mammary epithelial MCF-10A cells were maintained in DMEM:F12 media supplemented with 5% horse serum (Life Technologies), 20 ng/ml EGF, 0.5 µg/ml Hydrocortisone, 100 ng/ml Cholera toxin, 10 µg/ml insulin all from Sigma-Aldrich and 100 U/ml penicillin, 100 µg/ml streptomycin, and 2 mM L- glutamine (Biological Industries). Cells were grown at 37 °C under a 5% CO2 atmosphere.
S11.2 Cell Viability Assays
Cell viability was evaluated using the methylthiazoletetrazolium (MTT) colorimetric assay. Cancer cells (MCF-7, MDA-MB-231, A549 and SW620) or non-cancerous human cells MCF-10A cells were harvested (10^4 cells/well) in 96-well plates in a final volume of 100 µl and allowed to grow overnight.
After 24 h, vehicle solution (DMSO) or experimental compounds were added at 10 µM (single point experiment) or at different ranging concentrations (0.8-100 µM) to the assay plate and were incubated for 24 or 72 h. Then, 10 µl of MTT (5 mg/ml; Sigma-Aldrich) were added and the plates were incubated for 4 h at 37°C. 100 µl of DMSO (Sigma-Aldrich) were added to dissolve crystals and the reading was taken spectrophotometrically at 570 nm using a multi-well plate reader (Multiskan FC, Thermo Scientific, Waltham, MA, USA). Cell viability and inhibitory concentration (IC) values were obtained using GraphPad Prism v5.0 (Graphpad Software, San Diego, CA, USA). All data are shown as the mean value ± standard deviation (S.D.) of three independent experiments.

[1] = Cl^−/NO3^− antiport assay by chloride ISE; assay type: biochemical; conditions: for chloride transport at pH 6.5: phosphate buffer, compared to pH 7.2; for EC50 Cl^−/NO3^− at pH 7.2 (by ISE): EC50 at 270 s, carrier:lipid molar percent, POPC vesicles; for chloride transport at pH 7.2 (Hill analysis feasibility): Cl^−/NO3^− ISE assay, dose response; for chloride efflux at pH 4.5: citrate buffer, within 5 minutes
Protocol: The chloride transport properties of the new perenosins 2–8 were compared to 1d using the chloride/nitrate exchange assay monitored by a chloride ion selective electrode (ISE). Typically, unilamellar vesicles were prepared from POPC, containing an intravesicular NaCl solution (489 mM with 5 mM phosphate buffer at pH 7.2) suspended in a NaNO3 solution (489 mM with 5 mM phosphate buffer at pH 7.2). All perenosins were added as a DMSO solution and the rate of chloride efflux was monitored by the chloride ISE. At the end of the experiment (300 s), detergent was added to lyse the vesicles and obtain the 100% chloride efflux reading. Dose response studies of 1d and 2–8 were performed to allow Hill analysis, giving the EC50 values and Hill coefficients as shown in Table 2.
The external pH of cancer cells (pH 6.7[53]) is slightly acidic compared to healthy cells (pH 7.2–7.5[54]). […] To investigate the effect of pH on the chloride transport capabilities unilamellar vesicles were loaded with NaCl (489 mM) and suspended in NaNO3 (489 mM), and the internal and external solutions were buffered to pH 4.5, 6.5, 7.2 and 10 using various buffers (more detail can be found in the Supplementary Information). Compounds 1d and 2–8 were then tested in a single point screen at 0.1 mol% loading (Fig. 5). At pH 4.5 the perenosins exist predominantly as the active protonated species and so all compounds show moderate to high chloride transport properties, whereas, there is no chloride transport observed at pH 10 (see Supplementary Information for results).
S10. Anion Transport Studies
S10.1. General Procedure for the ISE Assay
Unilamellar vesicles were prepared using previously reported literature procedures7-9. A lipid film of POPC (1-palmitoyl-2-oleoyl-sn-glycero-3-phosphocholine) or POPC:cholesterol (7:3 molar ratio) was prepared from a chloroform solution under reduced pressure and then dried under vacuum for 4 or more hours. The lipid film was rehydrated by vortexing with an internal solution of buffered metal chloride salt (usually 489 mM MCl). The lipid suspension was then subjected to 9 freeze-thaw cycles and left to rest at room temperature for 30 minutes. After this, the suspension was extruded 25 times through a 200 nm polycarbonate membrane resulting in unilamellar vesicles of a mean diameter of 200 nm. The large unilamellar vesicles were dialysed in the corresponding external solution for a minimum of 2 hours to remove any unencapsulated metal salts. The lipid solution obtained after dialysis was diluted to a standard volume (usually 10 mL) with the external buffered solution to obtain a lipid stock of known concentration.
Internal and external solutions vary for each experiment and are detailed for each. Experiments conducted at different pHs required different buffers (citrate buffer for pH 4.5; phosphate buffer for pH 6.5 and pH 7.2; and ethanolamine buffer for pH 10) however, a constant buffer concentration (5 mM) and total ionic strength (500 mM) was maintained.
The lipid stock was diluted with the external buffer solution to a standard volume (5 mL), to afford a solution with a lipid concentration of 1 mM. The compounds were added as a DMSO solution (10 μL) at the start of the experiment and the resulting chloride efflux was monitored using a chloride selective electrode over 5 minutes. After this time, detergent (50 μL of Triton X-100 (11 w%) in H2O:DMSO (7:1 v/v)) was added to lyse the vesicles and after 7 minutes a final chloride efflux reading was taken. This value represented 100 % chloride efflux and was used to calibrate the other […]
Compared to pH 7.2, at pH 6.5 compounds 1d and 2-6 show increased transport ability with 2, 4 and 5 showing very similar, high transport capabilities and 1d, 3 and 6 not transporting to as great an […]
S10.3. Cl-/NO3- ISE Assay - Hill Analysis
The Cl-/NO3- exchange assay was performed as described above testing the compounds at varying […]
carrier concentration (mol%, with respect to lipid). The data points were then fitted to the Hill […]

[2] = MDA-MB-231, 24 h exposure, read-out: IC50 (24 h)
[3] = MDA-MB-231, 72 h exposure, read-out: IC50 (72 h)

| SMILES | IC50 (MDA-MB-231 cells; [2]) [µM] | IC50 (MDA-MB-231 cells; [3]) [µM] | chloride transport at pH 6.5 ([1]; 0.1 mol% loading) | EC50 Cl^−/NO3^− at pH 7.2 (by ISE) [1] | chloride transport at pH 7.2 (Hill analysis feasibility) [1] | maximum chloride efflux ([1]; after 300 s, loading of 10 mol%, pH 7.2) [%] | chloride efflux at pH 4.5 ([1]; 0.1 mol% loading) | chloride efflux in POPC vesicles at pH 7.2 ([1]; 0.1 mol% loading) [%] |
| --- | --- | --- | --- | --- | --- | --- | --- | --- |
| CCCc1cc2cc(C)cc(/N=C/c3[nH]c(C)cc3C)c2[nH]1 [Perenosin 4] | > 100 | 9.2 | high | 0.0111 mol% | – | – | – | – |
| CCCCCc1cc2cc(C)cc(/N=C/c3[nH]c(C)c(CCCCC)c3C)c2[nH]1 [Perenosin 6] | > 100 | 4.2 | – | 0.0852 mol% | – | – | – | – |
| CCCCCc1cc2cc(C(F)(F)F)cc(/N=C/c3[nH]c(C)cc3C)c2[nH]1 [Perenosin 3] | > 100 | 9.5 | – | – | too weak to perform Hill analysis | 35 | – | – |
| CCCCCc1cc2cc(C)cc(/N=C/c3[nH]c4ccccc4c3C)c2[nH]1 [Perenosin 8] | > 100 | 38 | inactive | – | too weak to perform Hill analysis; also recorded: weak transport activity | – | 35% | – |
| CCCCCc1cc2cc(C)cc(/N=C/c3[nH]c(C)cc3C)c2[nH]1 [Perenosin 2] | > 100 | 11.3 | high | 0.0043 mol% | – | – | – | 100 |
| CCCCCc1c(C)[nH]c(/C=N/c2cc(C)cc3cc[nH]c23)c1C [Perenosin 5] | 20.3 | 14 | high | 0.0227 mol% | – | – | – | – |
| CCCCCc1cc(/N=C/c2[nH]c3ccccc3c2C)c2[nH]ccc2c1 [Perenosin 7] | 73.8 | 11 | inactive | – | too weak to perform Hill analysis; also recorded: weak transport activity | – | inactive | – |
| CCCCCc1cc(/N=C/c2[nH]c(C)cc2C)c2[nH]ccc2c1 [Perenosin 1d] | 25.2 | 16.6 | – | 0.122 mol% and 0.1220 mol% | – | – | – | – |
